One data set deals with M. persicae. Description: Aphid settlement inhibition on leaf disks (% SI). Format: in vivo, Myzus persicae. Conditions: for M. persicae % SI: compounds at 50 μg/cm^2, 24 h; for EC50 (M. persicae): dose-response, settlement inhibition, limits in brackets. The method, then:
(§1) Breeding and maintenance of the insects was carried out in a temperature-controlled chamber at 24±1° C., 60-70% relative humidity and a photoperiod of 16:8 hours (light:darkness). Larvae of S. littoralis were maintained on a semisynthetic diet (Poitut and Bues. 1970. Ann. Zool. Ecol. Anim. 2, 79-91) and aphids M. persicae and Rhopalosiphum padi on their host plants, pepper—Capsicum annuum L.—and barley—Hordeum vulgare L.—respectively. Tests on anti-feeding activity were carried out with newly hatched larvae of the sixth stage of S. littoralis and wingless adult aphids. The upper surface of leaf disks (1.0 cm^2) of the pepper (Capsicum annuum L.) were treated with 10 μl of a solution (10 mg/ml for extracts and 5 mg/ml for pure products). Each test consisted of 5 Petri dishes with two (S. littoralis) larvae per dish or twenty boxes (2×2 cm) with ten M. persicae or R. padi aphids incubated in a growth chamber under the same conditions described for the breeding of the insects. Once consumed 75% of the surface of the control dishes (S. littoralis) or after 24 h (M. persicae or R. padi) the consumption (% FI) or settlement index (% SI), was calculated respectively. % FI=[1−(T/C)×100], where T and C are the consumption of treated leaves discs and control; % SI=[1−(% T/C %)] where % C and % T are the percentage of aphids settled on the discs of control and treated leaves (Burgueño et al. 2008. J. Chem. Ecol. 34, 766-771). Compounds with an FI/SI>70% were tested in a dose-response experiment to calculate its relative potency (EC50, being the effective dose for a reduction of 50% of feeding).

The next data set concerns M. javanica. Description: Nematicidal activity on infective juveniles (J2). Type of data set: in vivo, Meloidogyne javanica. To be noted: J2, 72 h. As to the method:
The nematode population (M. javanica) was maintained in growth chambers on tomato plants—Lycopersicon esculentum (var Marmande)—at 25° C. and a relative humidity of 70%. The tests were carried out according to the methodology described for M. javanica (Andres et al. 2012. Phytochem. Rev. 11, 371-390) using the biological stage of infective juveniles (J2). […] Each treatment was repeated four times and nematicidal activity was determined from the percentage of infective juveniles dead after 72 h. In cases in which a mortality rate of >99% was determined, dose-response experiments were carried out to determine LC50 and LC90.

The next data set concerns Lactuca sativa. Description: Phytotoxicity test on seeds (germination, root growth). Conditions: for Germination (% C) 72 h / Growth (% C) Root: Lactuca sativa; for Germination (% C) 72 h / Growth (% C) Root / phytotoxic effects on germination and root development: in vivo; for Growth (% C) Root: 6 days. As to the method:
[…] 500 μl of distilled water and 10/5 seeds, were added to each well, and the plates were incubated in a growth chamber at 25° C., 70% relative humidity and a 16:08 L:D photoperiod. Seeds' germination was recorded for six days and the elongation of roots was assessed at the end of the experiment. The data were analysed by variance analysis (ANOVA).

Another data set has as its system Botrytis cinerea. Put plainly: Antifungal activity, agar dilution, mycelial growth inhibition. Type of data set: cell-based. To be noted: for inhibition at 500 µg/mL: 0.5 mg/ml, 48 h. As to the method: (§2) Phytopathogenic fungi Fusarium moniliforme (Sheldon) [CECT 2152] F. oxysporum fs. lycopersici ([…] 2715] and F. solani (Mart) [CECT 2199] come from the Spanish Type Culture Collection (CECT). The strain Botrytis cinerea Pers.:Fr. (B05.10) is a donation from the Biochemistry Department at the University of La Laguna (ULL). For their maintenance the strains were grown on solid commercial medium PDA at 25° C. […] To determine the antifungal activity, the agar dilution method was used (Murabayashi et al. 1991. J. Pesticide Sci. 16, 419-427). […] In parallel, controls were prepared with ethanol at a concentration of 2%. […] Colonies grown in petri dishes and incubated for 48 h were digitized and measured using the ImageJ 1.43 software. The percentage of inhibition (% I) was calculated as: % I=(C-T/C)×100, where C is the diameter of control colonies and T of the colonies of the tested samples. The growth inhibition effective dose (EC50) was determined by linear regression analysis (% of inhibition of dose log).

In another data set the test system is S. littoralis. Put plainly: Anti-feeding activity on leaf disks (% FI). Type of data set: in vivo, Spodoptera littoralis. Conditions: compounds at 50 μg/cm^2. The method, then: as §1, with “Each test consisted of 5 Petri dishes with two (S. littoralis) larvae per dish or twenty boxes (2×2 cm) with ten M. persicae or R. padi aphids incubated in a growth chamber under the same conditions described for the breeding of the insects.” left out, “Compounds with an FI/SI>70% were tested in a dose-response experiment to calculate its relative potency (EC50, being the effective dose for a reduction of 50% of feeding).” left out

The subject of another data set is F. moniliforme. Description: Antifungal activity, agar dilution, mycelial growth inhibition. Format: cell-based, Fusarium moniliforme. Conditions: Fusarium verticillioides; tested at 0.1 mg/ml (footnote a); 48 h. The method, then: as §2
Another data set concerns F. solani. The description is as above. Format: cell-based. Conditions: Fusarium solani. As to the method: as §2
In another data set the test system is R. padi. Description: Aphid settlement inhibition on leaf disks (% SI). Format: in vivo, Rhopalosiphum padi. Conditions: compounds at 50 μg/cm^2; 24 h. As to the method: as §1, with “Each test consisted of 5 Petri dishes with two (S. littoralis) larvae per dish or twenty boxes (2×2 cm) with ten M. persicae or R. padi aphids incubated in a growth chamber under the same conditions described for the breeding of the insects.” left out, “Compounds with an FI/SI>70% were tested in a dose-response experiment to calculate its relative potency (EC50, being the effective dose for a reduction of 50% of feeding).” left out

In brackets after ≈: the same amount, converted by molar mass. Marks after values point to notes of the source that are not given here.

One may read the inhibition as the percentage by which the read-out fell short of the control. By EC50 is commonly meant the concentration at which the effect is half-maximal. On to `CCCCCC1=CC(=O)[C@](O)(CCCC)[C@H](O)C1` (stereo in doubt) [Stempholone A, 6-butyl-5,6-dihydroxy-3-pentylcyclohex-2-en-1-one], for which, in the data set with M. persicae, the “M. persicae % SI” value was 81.42 ± 5.61% and the “EC50 (M. persicae)” value is listed as 0.15 (0.06-0.36)* μg/cm^2. The “M. javanica % paralysed” value in the data set with M. javanica (0.25 mg/ml) is given as 2.8 ± 0.5%. The “M. javanica % paralysed” value with M. javanica (0.5 mg/ml) worked out at 83.05 ± 3.15%. In the data set on Lactuca sativa (5 μg/μl), the “Germination (% C) 72 h” value is recorded as 97.50 ± 3.54^ % C and the “Growth (% C) Root” value is recorded as 230.26 ± 21.33 % C. Further, in the data set with Lactuca sativa, the “phytotoxic effects on germination and root development” value is given as “absence of phytotoxic effects”. In the data set with Botrytis cinerea, this compound had an inhibition at 500 µg/mL of 56.2 ± 1.5%. The EC50 in the data set with Botrytis cinerea (growth inhibition, linear regression, read-out: EC50 (95% CL) Botrytis cinerea) worked out at 430 µg/mL (≈ 1690 µM). The “S. littoralis % FI” value with S. littoralis worked out at 41.8 ± 7.9%.
In the case of `O=C1C=CC(=O)c2c(O)cccc21` [juglone, reference compound], in the data set on Lactuca sativa (positive control of germination inhibition, 5 μg/μl), the germination entry was “lower than 5%”.
Regarding `CCCC[C@@]1(O)C(=O)C=C(CCCC(C)O)C[C@H]1O` (stereo in doubt) [Stempholone B, 6-butyl-5,6-dihydroxy-3-(4-hydroxypentyl)cyclohex-2-en-1-one], in the data set on M. persicae, the “M. persicae % SI” value worked out at 83.87 ± 6.89% and the “EC50 (M. persicae)” value is 0.02 (0.003-0.15)* μg/cm^2. The “M. javanica % paralysed” value with M. javanica (0.5 mg/ml) worked out at 1.24 ± 0.9%. In addition, the inhibition at 100 µg/mL with F. moniliforme amounted to 4.2%. Further, in the data set with Lactuca sativa (5 μg/μl), the “Germination (% C) 72 h” value is recorded as 100 ± 0.00 % C and the “Growth (% C) Root” value was 109.26 ± 9.57 % C. The “phytotoxic effects on germination and root development” value with Lactuca sativa was “absence of phytotoxic effects”. Besides, the EC50 in the data set on F. solani (growth inhibition, linear regression, read-out: EC50 (95% CL) F. solani) worked out at 210 µg/mL (≈ 777 µM). In the data set with F. solani (tested at 0.1 mg/ml (footnote a), 48 h), this compound had an inhibition at 100 µg/mL of 49.9%. In the data set on Botrytis cinerea, this compound yielded an inhibition at 500 µg/mL of 11.9 ± 3.67%. The “R. padi % SI” value in the data set on R. padi was 45.13 ± 9.09%. Moreover, the “S. littoralis % FI” value in the data set with S. littoralis was 52.9 ± 5.9%.

The values above are taken from patent US20180312880A1, “NATURAL BROAD-SPECTRUM BIOCIDES” (CONSEJO SUPERIOR DE INVESTIGACIONES CIENTÍFICAS, priority 2015, published 2018).
